Laboratory results published in publication PMC4666783 (Organic & biomolecular chemistry, 2015).
Where two headings read alike, the source gives them in different places.

Columns and labels:
HIV-1 protease = HIV-1 protease (Human immunodeficiency virus type 1 group M subtype B, UniProt P04585); test: HIV-1 protease enzyme inhibition, assay developed by Toth and Marshall; format: biochemical; details: for enzyme inhibitory activity: result in words, comparator as stated
HIV-1 = test: Antiviral activity, MTT assay; format: cell-based; details: for IC50: Human immunodeficiency virus 1, read-out: IC50 (antiviral); for antiviral potency: result in words, comparator as stated
[1] = test system: HIVDRV^RP20 drug resistant strains of HIV; test: microbe, parasite or virus in culture; format: cell-based, HIV-1

COc1ccc(S(=O)(=O)N(CC(C)C)C[C@@H](O)[C@H](Cc2ccccc2)NC(=O)O[C@H]2CCO[C@H]3OC[C@@H](OC)[C@H]32)cc1 [Inhibitor 30a, (3S,3aR,4S,7aS)-3-Methoxyhexahydro-2H-furo[2,3-b]pyran-4-yl (2S,3R)-3-hydroxy-4-(N-isobutyl-4-methoxyphenylsulfonamido)-1-phenylbutan-2-yl carbamate]
Ki (HIV-1 protease; at least 5 data points, standard error less than 7%): 1.38 nM

CC(C)CN(C[C@@H](O)[C@H](Cc1ccccc1)NC(=O)O[C@H]1CO[C@H]2OCC[C@H]21)S(=O)(=O)c1ccc(N)cc1 [Darunavir, darunavir, reference compound]
IC50 (HIV-1): 1.6 nM

CCN[C@H]1CO[C@@H]2OCC[C@H](OC(=O)N[C@@H](Cc3ccccc3)[C@H](O)CN(CC(C)C)S(=O)(=O)c3ccc(OC)cc3)[C@@H]21 [Inhibitor 30j, (3R,3aS,4S,7aS)-3-(Ethylamino)hexahydro-2H-furo[2,3-b]pyran-4-yl (2S,3R)-3-hydroxy-4-(N-isobutyl-4-methoxyphenylsulfonamido)-1-phenylbutan-2-ylcarbamate]
antiviral potency (HIV-1): subnanomolar antiviral activity

CCCN[C@H]1CO[C@@H]2OCC[C@H](OC(=O)N[C@@H](Cc3ccccc3)[C@H](O)CN(CC(C)C)S(=O)(=O)c3ccc(OC)cc3)[C@@H]21 [Inhibitor 30l, (3R,3aS,4S,7aS)-3-(Propylamino)hexahydro-2H-furo[2,3-b]pyran-4-yl (2S,3R)-3-hydroxy-4-(N-isobutyl-4-methoxyphenylsulfonamido)-1-phenylbutan-2-ylcarbamate]
fold reduction in antiviral potency compared to 30j (HIV-1; 30l vs 30j): ~3 fold

COc1ccc(S(=O)(=O)N(CC(C)C)C[C@@H](O)[C@H](Cc2ccccc2)NC(=O)O[C@H]2CCO[C@H]3OC[C@H](O)[C@H]32)cc1 [Inhibitor 30f, (3R,3aS,4S,7aS)-3-Hydroxyhexahydro-2H-furo[2,3-b]pyran-4-yl (2S,3R)-3-hydroxy-4-(N-isobutyl-4-methoxyphenyl-sulfonamido)-1-phenylbutan-2-ylcarbamate]
Ki (HIV-1 protease): 0.06 nM
fold less potent than compound 30b (HIV-1 protease; enzyme inhibitory and antiviral activity, 30f vs 30b): 10 fold
antiviral activity against resistant variant ([1]; HIVDRV^RP20, preliminary assessment): maintained full antiviral activity
IC50 ([1]; Human immunodeficiency virus 1, read-out: IC50 against HIVDRV^RP20): 3.3 nM
IC50 (HIV-1): 3.15 nM

CCO[C@H]1CO[C@@H]2OCC[C@H](OC(=O)N[C@@H](Cc3ccccc3)[C@H](O)CN(CC(C)C)S(=O)(=O)c3ccc(OC)cc3)[C@@H]21 [Inhibitor 30d, (3R,3aR,4S,7aS)-3-Ethoxyhexahydro-2H-furo[2,3-b]pyran-4-yl (2S,3R)-3-hydroxy-4-(N-isobutyl-4-methoxyphenyl-sulfonamido)-1-phenylbutan-2-ylcarbamate]
Ki (HIV-1 protease): 0.0033 nM
enzyme inhibitory activity (HIV-1 protease): comparable enzyme inhibitory activity

CO[C@H]1CO[C@@H]2OCC[C@H](OC(=O)N[C@@H](Cc3ccccc3)[C@H](O)CN(CC(C)C)S(=O)(=O)c3ccc(N)cc3)[C@@H]21 [Inhibitor 30c, (3R,3aR,4S,7aS)-3-Methoxyhexahydro-2H-furo[2,3-b]pyran-4-yl (2S,3R)-4-(4-amino-N-isobutylphenylsulfonamido)-3-hydroxy-1-phenylbutan-2-ylcarbamate]
Ki (HIV-1 protease): 0.037 nM
IC50 (HIV-1): 15 nM

COc1ccc(S(=O)(=O)N(CC(C)C)C[C@@H](O)[C@H](Cc2ccccc2)NC(=O)O[C@H]2CCO[C@H]3OC[C@H](OCc4ccccc4)[C@H]32)cc1 [Inhibitor 30e, (3R,3aR,4S,7aS)-3-(Benzyloxy)hexahydro-2H-furo[2,3-b]pyran-4-yl (2S,3R)-3-hydroxy-4-(N-isobutyl-4-methoxy-phenylsulfonamido)-1-phenylbutan-2-ylcarbamate]
Ki (HIV-1 protease): 0.012 nM
IC50 (HIV-1): 0.45 nM

CCN[C@H]1CO[C@@H]2OCC[C@H](OC(=O)N[C@@H](Cc3ccccc3)[C@H](O)CN(CC(C)C)S(=O)(=O)c3ccc(N)cc3)[C@@H]21 [Inhibitor 30k, (3R,3aS,4S,7aS)-3-(Ethylamino)hexahydro-2H-furo[2,3-b]pyran-4-yl (2S,3R)-4-(4-amino-N-isobutylphenylsulfonamido)-3-hydroxy-1-phenylbutan-2-ylcarbamate]
antiviral potency (HIV-1): significant reduction in antiviral potency

COc1ccc(S(=O)(=O)N(CC(C)C)C[C@@H](O)[C@H](Cc2ccccc2)NC(=O)O[C@H]2CCO[C@H]3OC[C@H](OC)[C@H]32)cc1 [Inhibitor 30b, (3R,3aR,4S,7aS)-3-Methoxyhexahydro-2H-furo[2,3-b]pyran-4-yl (2S,3R)-3-hydroxy-4-(N-isobutyl-4-methoxyphenylsulfonamido)-1-phenylbutan-2-ylcarbamate]
Ki (HIV-1 protease): 0.0045 nM
fold better enzymatic Ki compared to compound 30a (HIV-1 protease; 30b vs 30a): over 300 fold
IC50 (HIV-1): 0.2 nM
antiviral potency (HIV-1): subnanomolar antiviral activity

COc1ccc(S(=O)(=O)N(CC(C)C)C[C@@H](O)[C@H](Cc2ccccc2)NC(=O)O[C@H]2CCO[C@H]3OC[C@H](N(C)C)[C@H]32)cc1 [Inhibitor 30m, (3R,3aS,4S,7aS)-3-(Dimethylamino)hexahydro-2H-furo[2,3-b]pyran-4-yl (2S,3R)-3-hydroxy-4-(N-isobutyl-4-methoxyphenylsulfonamido)-1-phenylbutan-2-ylcarbamate]
enzyme inhibitory activity (HIV-1 protease): reduction in enzyme Ki
fold improved antiviral activity over 30i (HIV-1; 30m vs 30i): 3 fold
